For the assay, the system named is kynurenine production in HeLa cells. The assay can be described thus: Inhibition of kynurenine production in HeLa cells. The assay is classed as cell-based, human. To be noted: 48 h. The method, then: The effect of compounds described herein on the inhibition of kynurenine production in HeLa cells (derived from human cervical cancer) was determined. HeLa cells were seeded into a 96-well culture plate at a density of 5×10^3 per well in RPMI1640/phenol red free media (from GIBCO) with 2 mM L-glutamine and 10% fetal bovine serum (FBS, from GIBCO) and grown overnight in a 37° C. incubator with 5% CO2. Twenty-four hours later, human IFN-γ (from GIBCO) (final concentration 50 ng/mL) and test compound solutions (serially diluted to different wells) were added to each well with a final volume of 200 uL per well. Forty-eight hours after incubation with compounds, 140 uL supernatant was taken from each well and was transferred to a new 96-well plate. Ten microliters of 6.1 N trichloroacetic acid were added into each well, mixed and incubated at 50° C. for 30 minutes. The reaction mixture was then centrifuged for 10 minutes at 2500 rpm and 100 uL of the supernatant per well was transferred to another 96 well plate and mixed with 100 uL of 2% (w/v) p-dimethylaminobenzaldehyde in acetic acid. The yellow color derived from kynurenine was measured at 480 nm using a SPECTRAmax i3 reader. Each compound concentration was done in triplicates and compound IC50 value was calculated using nonlinear regression using Graphpad Prism 5.0.
The inhibitory activity of representative compounds described herein, compared with another IDO inhibitor, such as INCB-24360, Controls 1 and 2 are shown in Table 2.

Where [1] appears, read: Homo sapiens, HeLa, HeLa cells, human IFN-γ 50 ng/mL, kynurenine read at 480 nm, read-out: IC50.

Our source for the IC50 values is patent US11969425B2, “Inhibitor of indoleamine-2,3-dioxygenase (IDO)” (InventisBio LLC, priority 2016, dated 2024).

In general, pIC50 refers to −log10 of the IC50, conventionally taken in molar units.

Each structure is given as a SMILES string. pIC50: −log10 of the molar value. Like-named read-outs stand apart in the source and are kept apart here.

As to `CC(C)CN(c1ccc(C2(C(=O)O)CCC2)cc1Nc1ccc(C#N)cc1)C1CCCCC1` [Compound 56], the pIC50 under setting [1] was 9.70.
For the compound `CC(C)CN(c1ccc(C2(C(=O)O)CCC2)cc1Nc1ccc(Cl)cc1)C1CCOCC1` [Compound 57], the pIC50 under setting [1] is 9.70.
Still for that read-out and setting: the figure for `CCC(C(=O)O)c1ccc(N(CC(C)C)CC(C)C)c(Nc2ccc(C#N)cc2)c1` (centres unmarked) [Compound 61A] is 9.52; for `CCC(C(=O)O)c1ccc(N(CC(C)C)C2CCCCC2)c(NC(=O)Nc2cc(C)no2)c1` (centres unmarked) [Compound 63A] it is 8.60; for `CCC(C(=O)O)c1ccc(N(CC(C)C)C2CCOCC2)c(Nc2ccc(Cl)cc2)c1` (centres unmarked) [Compound 68A] it is 9.40.
On to `CCC(C(=O)O)c1ccc(N(CC(C)C)C2CCOCC2)c(Nc2ccc(Cl)cc2)c1` (centres unmarked) [Compound 68B], for which the pIC50 (HeLa cells, human IFN-γ 50 ng/mL, kynurenine read at 480 nm, read-out: IC50) is 9.15.
As for `CCC(C(=O)O)c1ccc(N(CC(C)C)C2CCOCC2)c(Nc2ccc(F)cc2F)c1` (centres unmarked) [Compound 69], under setting [1], the pIC50 was 8.41.
Same read-out and setting: the same measure for `CCC(C(=O)O)c1ccc(N(CC(C)C)C2CCOCC2)c(Nc2ccc(C#N)cc2)c1` (centres unmarked) [Compound 70A]: 9.40; for `CC(C)CN(c1ccc(C2(C(=O)O)CCC2)cc1Nc1ccc(C#N)cc1)C1CCOCC1` [Compound 72]: 9.70; for `CCOc1ccc(Nc2cc(C3(C(=O)O)CCC3)ccc2N(CC(C)C)C2CCOCC2)cc1` [Compound 73]: 9.40.
The same measure, in the same setting: the same measure for `CC(C)CN(c1ccc(C2(C(=O)O)CCC2)cc1Nc1cncnc1)C1CCOCC1` [Compound 74]: 8.72; for `Cc1csc(Nc2cc(C3(C(=O)O)CCC3)ccc2N(CC(C)C)C2CCOCC2)n1` [Compound 76]: 8.96; for `CC(C)CN(c1ccc(C2(C(=O)O)CCC2)cc1Nc1ccc(S(C)(=O)=O)cc1)C1CCOCC1` [Compound 77]: 8.52.
Still for that read-out and setting: the figure for `CC(C)CN(c1ccc(C2(C(=O)O)CCC2)cc1NC1CCCC1)C1CCOCC1` [Compound 78] is 7.86.
Take `CC(C)CN(c1ccc(C2(C(=O)O)CCC2)cc1NCC1CC1)C1CCOCC1` [Compound 80]: the pIC50 under setting [1] is 7.54.
Still for that read-out and setting: the figure for `CC(C)CN(CC(C)C)c1ncc(C2(C(=O)O)CCC2)cc1NC(=O)Nc1ccc(F)cc1F` [Compound 83] is 8.27; for `Cc1cc(NC(=O)Nc2cc(C3(C(=O)O)CCC3)cnc2N(CC(C)C)CC(C)C)on1` [Compound 85] it is 7.72; for `CC(C)CN(c1ccc(C2(C(=O)O)CCC2)cc1Nc1cnn(C)c1)C1CCOCC1` [Compound 87] it is 8.19.
On the same count and under the same terms, the same measure for `CC(C)CN(c1ccc(C2(C(=O)O)CCC2)cc1Nc1ccc(Cl)cc1F)C1CCOCC1` [Compound 88]: 8.77.
For the compound `CC(C)CN(c1ccc(C2(C(=O)O)CCC2)cc1Nc1ccc(F)cc1F)C1CCOCC1` [Compound 89], the pIC50 under setting [1] was 8.20.
The same measure, in the same setting: the figure for `CC(C)CN(c1ncc(C2(C(=O)O)CCC2)cc1NC(=O)Nc1ccc(F)cc1F)C1CCOCC1` [Compound 90] is 7.48; for `CC(C)CN(c1ncc(C2(C(=O)O)CCC2)cc1Nc1ccc(Cl)cc1)C1CCOCC1` [Compound 92] it is 9.70.
The same measure, in the same setting: the same measure for `CC(C)CN(CC(C)C)c1ncc(C2(C(=O)O)CCC2)cc1Nc1ccc(C#N)cc1` [Compound 93]: 9.52; for `CC(C)CN(c1ccc(C2(C(=O)O)CCC2)cc1Nc1ccc(C#N)cn1)C1CCCCC1` [Compound 94]: 9.70.
On the same count and under the same terms, the figure for `CC(C)N(CC1CC1)c1ccc(C2(C(=O)O)CCC2)cc1Nc1ccc(Cl)cc1` [Compound 95] is 9.40.
Regarding `CC(C)CN(CC(C)C)c1ccc(C2(C(=O)O)CCC2)cc1Nc1ccc(Cl)cc1` [Compound 96], the pIC50 under setting [1] is 9.40.
Still for that read-out and setting: the figure for `CCOc1ncc(Nc2cc(C3(C(=O)O)CCC3)ccc2N(CC(C)C)CC(C)C)cn1` [Compound 97] is 8.62; for `CCOc1ncc(Nc2cc(C3(C(=O)O)CCC3)ccc2N(CC2CC2)C(C)C)cn1` [Compound 98] it is 8.55.
With `CC(C)CN(c1ccc(CC(=O)O)cc1Nc1ccc(C#N)cc1)C1CCCCC1` [Compound 99], under setting [1], the negative-log IC50 (pIC50) is 8.41.
Same read-out and setting: the same measure for `CC(C)CN(c1ccc(C2(C(=O)O)CCC2)cc1Nc1cccc(Cl)c1)C1CCOCC1` [Compound 100]: 8.46.
On the same count and under the same terms, the same measure for `CC(C)CN(c1ccc(C2(C(=O)O)CCC2)cc1Nc1ccc(Cl)c(F)c1)C1CCOCC1` [Compound 101]: 9.70; for `CC(C)CN(c1ccc(C2(C(=O)O)CCC2)cc1Nc1ccc(Cl)cn1)C1CCOCC1` [Compound 102]: 9.70; for `CC(C)CN(c1ccc(C2(C(=O)O)CCC2)cc1Nc1cc(Cl)cc(Cl)c1)C1CCOCC1` [Compound 103]: 7.70.
Same read-out and setting: the same measure for `CC(C)CN(c1ccc(CC(=O)O)cc1Nc1ccc(Cl)cc1)C1CCOCC1` [Compound 104]: 8.74.
In the case of `CC(C)N(CC1CC1)c1ccc(C2(C(=O)O)CCC2)cc1Nc1ccc(C#N)cn1` [Compound 108], the pIC50 under setting [1] was 9.52.
On the same count and under the same terms, the same measure for `CCOc1ncc(Nc2cc(CC(=O)O)ccc2N(CC(C)C)C2CCOCC2)cn1` [Compound 109]: < 6.50.
The same measure, in the same setting: the same measure for `CC(C)N(CC1CC1)c1ccc(C2(C(=O)O)CCC2)cc1Nc1ccc(C#N)cc1` [Compound 112]: 9.70.
Consider `CC(C)N(CC1CC1)c1ccc(C2(C(=O)O)CCC2)cc1Nc1ccc(Cl)cn1` [Compound 113], for which the pIC50 under setting [1] was 9.40.
On the same count and under the same terms, the same measure for `CCOc1ncc(Nc2cc(C(C)(C)C(=O)O)ccc2N(CC2CC2)C(C)C)cn1` [Compound 114]: 7.60; for `CC(C)N(CC1CC1)c1ncc(C2(C(=O)O)CCC2)cc1Nc1ccc(C#N)cc1` [Compound 116]: 9.30.
On to `CCOc1ncc(Nc2cc(C(C)(C)C(=O)O)ccc2N(CC(C)C)C2CCOCC2)cn1` [Compound 121], for which the pIC50 under setting [1] was 8.39.
The same measure, in the same setting: the figure for `CCOc1ncc(Nc2cc(C3(C(=O)O)CCC3)cnc2N(CC(C)C)C2CCOCC2)cn1` [Compound 122] is 8.64.
On the same count and under the same terms, the same measure for `CCOc1ncc(Nc2cc(C3(C(=O)O)CCC3)cnc2N(CC)C2CCOCC2)cn1` [Compound 124]: 7.95; for `CCOc1ncc(Nc2cc(C3(C(=O)O)CCC3)cnc2N2CCC(c3ccccc3)CC2)cn1` [Compound 126]: 8.12.
In the case of `CCOc1ncc(Nc2cc(C3(C(=O)O)CCC3)cnc2N2C3CCC2CC(c2ccc(F)cc2)C3)cn1` (centres unmarked) [Compound 127], the pIC50 (Homo sapiens, HeLa) is 7.66.
Turning to `CC(C)C1COCCN1c1ncc(C2(C(=O)O)CCC2)cc1Nc1ccc(Cl)cc1` (centres unmarked) [Compound 128], under setting [1], the pIC50 is 8.03.
For the compound `Cc1cc(NC(=O)Nc2cc([C@H]3C[C@H]3C(=O)O)ccc2N(CC(C)C)CC(C)C)on1` [Control 2, (1R,2S)-2-(4-(diisobutylamino)-3-(3-(3-methylisoxazol-5-yl)ureido)phenyl)cyclopropanecarboxylic acid, reference compound], the pIC50 under setting [1] was 8.52.
